{
  "source": "ChEMBL document CHEMBL5338751",
  "about": "“Discovery of the First-in-Class Intestinal Restricted FXR and FABP1 Dual Modulator ZLY28 for the Treatment of Nonalcoholic Fatty Liver Disease” (J Med Chem, 2023)",
  "key": {"Bile acid receptor": {"molecular_target": "T1, Bile acid receptor (Homo sapiens, UniProt Q96RI1)", "T1 sequence (Q96RI1 whole entry)": "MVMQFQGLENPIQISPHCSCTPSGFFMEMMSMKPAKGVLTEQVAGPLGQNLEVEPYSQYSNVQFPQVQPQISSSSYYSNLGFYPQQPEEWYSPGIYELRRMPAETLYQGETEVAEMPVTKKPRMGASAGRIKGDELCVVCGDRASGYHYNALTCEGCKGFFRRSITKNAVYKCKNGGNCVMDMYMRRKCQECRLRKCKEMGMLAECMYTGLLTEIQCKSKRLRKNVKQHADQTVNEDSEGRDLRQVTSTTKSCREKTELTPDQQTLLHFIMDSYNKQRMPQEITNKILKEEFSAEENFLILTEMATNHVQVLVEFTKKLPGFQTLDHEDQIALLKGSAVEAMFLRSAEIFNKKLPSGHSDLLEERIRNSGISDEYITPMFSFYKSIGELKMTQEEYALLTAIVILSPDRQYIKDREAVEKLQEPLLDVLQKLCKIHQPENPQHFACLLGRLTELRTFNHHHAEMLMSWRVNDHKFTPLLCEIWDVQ", "assay": "Agonist activity at FXR (unknown origin) expressed in human HepG2 cells co-transfected with human RXR assessed as luciferase activity incubated for 24 hrs by cell-based luciferase assay"}, "[1]": {"assay": "Metabolic stability in mouse liver microsomes assessed as parent compound remaining incubated for 1 hr by LC-MS analysis", "assay_type": "ADME, Microsome", "conditions": "read-out: Stability"}, "[2]": {"molecular_target": "T2, Peroxisome proliferator-activated receptor alpha (Homo sapiens, UniProt Q07869)", "T2 sequence (Q07869 whole entry)": "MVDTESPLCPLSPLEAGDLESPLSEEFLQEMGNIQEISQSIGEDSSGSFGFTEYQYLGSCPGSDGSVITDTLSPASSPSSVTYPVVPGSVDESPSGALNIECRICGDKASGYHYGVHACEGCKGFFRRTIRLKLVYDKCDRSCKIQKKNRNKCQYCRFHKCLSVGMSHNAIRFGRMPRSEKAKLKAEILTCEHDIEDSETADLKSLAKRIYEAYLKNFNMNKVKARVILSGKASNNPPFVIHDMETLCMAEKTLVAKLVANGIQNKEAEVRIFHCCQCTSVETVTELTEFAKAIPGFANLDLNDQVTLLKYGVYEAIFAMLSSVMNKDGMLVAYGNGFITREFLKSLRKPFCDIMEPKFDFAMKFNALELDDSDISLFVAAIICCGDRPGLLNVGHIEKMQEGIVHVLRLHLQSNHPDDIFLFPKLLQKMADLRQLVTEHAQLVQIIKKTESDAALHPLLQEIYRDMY", "assay": "Agonist activity at pBIND-PPARalpha (unknown origin) transfected in HepG2 cells incubated for 18 hrs by renilla/firefly based dual-glo luciferase assay", "assay_type": "cell-based"}, "Estrogen receptor": {"molecular_target": "Estrogen receptor (Homo sapiens, UniProt P03372)", "sequence (P03372 whole entry, the tested form may be a part)": "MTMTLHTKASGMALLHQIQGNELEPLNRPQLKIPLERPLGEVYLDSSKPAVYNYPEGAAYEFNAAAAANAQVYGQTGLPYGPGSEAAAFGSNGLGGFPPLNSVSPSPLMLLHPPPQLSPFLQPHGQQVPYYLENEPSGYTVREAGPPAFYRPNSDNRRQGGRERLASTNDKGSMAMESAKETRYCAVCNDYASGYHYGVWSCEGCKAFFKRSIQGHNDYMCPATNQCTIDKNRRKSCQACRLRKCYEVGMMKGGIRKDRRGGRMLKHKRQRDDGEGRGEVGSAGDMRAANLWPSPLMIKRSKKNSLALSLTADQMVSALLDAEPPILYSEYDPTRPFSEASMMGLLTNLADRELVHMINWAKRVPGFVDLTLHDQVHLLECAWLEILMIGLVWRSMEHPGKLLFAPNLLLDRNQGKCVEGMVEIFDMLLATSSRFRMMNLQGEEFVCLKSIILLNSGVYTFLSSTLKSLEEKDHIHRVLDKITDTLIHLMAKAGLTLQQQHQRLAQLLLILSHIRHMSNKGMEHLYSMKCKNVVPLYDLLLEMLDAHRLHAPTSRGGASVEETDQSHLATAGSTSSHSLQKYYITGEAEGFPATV", "assay": "Activation of Gal-DBD and NHRLBD fused ERalpha (unknown origin) transfected in African green monkey CV-1 cells by luciferase reporter assay", "assay_type": "cell-based"}, "Estrogen receptor beta": {"molecular_target": "Estrogen receptor beta (Homo sapiens, UniProt Q92731)", "sequence (Q92731 whole entry, the tested form may be a part)": "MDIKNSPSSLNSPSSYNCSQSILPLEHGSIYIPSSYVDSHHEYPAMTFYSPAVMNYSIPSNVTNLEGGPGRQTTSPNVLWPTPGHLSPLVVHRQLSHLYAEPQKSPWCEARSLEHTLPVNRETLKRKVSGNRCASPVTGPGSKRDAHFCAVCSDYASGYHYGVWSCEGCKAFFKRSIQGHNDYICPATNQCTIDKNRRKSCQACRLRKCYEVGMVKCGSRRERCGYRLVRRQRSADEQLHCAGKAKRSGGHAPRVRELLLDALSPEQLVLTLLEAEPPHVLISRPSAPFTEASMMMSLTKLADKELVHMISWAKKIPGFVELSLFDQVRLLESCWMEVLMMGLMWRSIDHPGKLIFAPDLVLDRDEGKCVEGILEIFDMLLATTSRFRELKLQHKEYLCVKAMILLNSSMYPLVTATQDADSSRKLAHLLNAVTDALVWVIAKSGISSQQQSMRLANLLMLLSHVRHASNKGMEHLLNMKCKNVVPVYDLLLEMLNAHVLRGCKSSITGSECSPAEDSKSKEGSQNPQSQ", "assay": "Activation of Gal-DBD and NHRLBD fused ERbeta (unknown origin) transfected in African green monkey CV-1 cells by luciferase reporter assay", "assay_type": "cell-based"}, "Androgen receptor": {"molecular_target": "Androgen receptor (Homo sapiens, UniProt P10275)", "sequence (P10275 whole entry, the tested form may be a part)": "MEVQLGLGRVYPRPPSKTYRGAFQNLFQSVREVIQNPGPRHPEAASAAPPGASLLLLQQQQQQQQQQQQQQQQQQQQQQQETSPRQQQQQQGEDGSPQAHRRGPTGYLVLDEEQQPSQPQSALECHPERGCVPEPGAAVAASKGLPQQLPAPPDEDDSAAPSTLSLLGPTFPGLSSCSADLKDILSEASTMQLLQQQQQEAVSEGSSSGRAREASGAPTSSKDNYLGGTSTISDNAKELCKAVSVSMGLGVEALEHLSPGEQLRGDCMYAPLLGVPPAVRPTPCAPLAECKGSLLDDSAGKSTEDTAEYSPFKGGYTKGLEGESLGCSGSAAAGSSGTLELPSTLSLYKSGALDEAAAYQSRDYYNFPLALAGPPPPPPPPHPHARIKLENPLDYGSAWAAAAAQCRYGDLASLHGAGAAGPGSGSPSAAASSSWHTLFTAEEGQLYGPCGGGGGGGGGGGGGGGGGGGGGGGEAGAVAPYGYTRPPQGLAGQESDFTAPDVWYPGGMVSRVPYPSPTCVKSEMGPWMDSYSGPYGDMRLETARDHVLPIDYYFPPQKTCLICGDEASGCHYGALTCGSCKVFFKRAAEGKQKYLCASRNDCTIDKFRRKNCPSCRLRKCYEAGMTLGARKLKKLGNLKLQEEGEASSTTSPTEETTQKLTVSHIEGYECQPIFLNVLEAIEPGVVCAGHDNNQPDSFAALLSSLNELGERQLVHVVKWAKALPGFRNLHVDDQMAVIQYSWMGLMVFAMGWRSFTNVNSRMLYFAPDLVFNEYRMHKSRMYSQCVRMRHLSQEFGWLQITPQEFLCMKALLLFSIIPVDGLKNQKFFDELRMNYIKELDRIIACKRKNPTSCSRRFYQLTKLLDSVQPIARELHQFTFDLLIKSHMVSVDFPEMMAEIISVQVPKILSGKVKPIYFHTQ", "assay": "Activation of Gal-DBD and NHRLBD fused AR (unknown origin) transfected in African green monkey CV-1 cells by luciferase reporter assay", "assay_type": "cell-based"}, "[3]": {"assay": "Drug concentration in C57BL/6 mouse plasma at 20 mg/kg, po administered for 5 days and measured after 1 hr post final dose by LC-MS analysis", "assay_type": "ADME, organism-based", "conditions": "time 5 day"}, "[4]": {"assay": "Drug concentration in C57BL/6 mouse liver at 20 mg/kg, po administered for 5 days and measured after 1 hr post final dose by LC-MS analysis", "assay_type": "ADME, organism-based", "conditions": "time 5 day, read-out: Ct"}, "[5]": {"assay": "Ratio of drug level in ileum to plasma in C57BL/6 mouse at 20 mg/kg, po administered for 5 days and measured after 1 hr post final dose by LC-MS analysis"}, "Mus musculus [6]": {"tested_on": "Mus musculus", "assay": "Anti-NASH activity in western diet and CCl4-induced nonalcoholic steatohepatitis C57BL/6 mouse assessed as alleviation of hepatic steatosis at 20 mg/kg, po administered for 12 weeks starting from week 8 and change in dose for every 5 days", "assay_type": "functional, organism-based", "conditions": "time 4.0 weeks"}, "Mus musculus [7]": {"tested_on": "Mus musculus", "assay": "In vivo inhibition of FABP1 in western diet and CCl4-induced nonalcoholic steatohepatitis C57BL/6 mouse assessed as increase in excretion of NEFA in fecal at 20 mg/kg, po administered for 12 weeks starting from week 8 and change in dose for every 5 days", "assay_type": "functional, organism-based", "conditions": "time 4.0 weeks"}, "Mus musculus [8]": {"tested_on": "Mus musculus", "assay": "Anti-NASH activity in western diet and CCl4-induced nonalcoholic steatohepatitis C57BL/6 mouse assessed as downregulation of IL-1beta expression level at 20 mg/kg, po administered for 12 weeks starting from week 8 and change in dose for every 5 days by ELISA", "assay_type": "functional, organism-based", "conditions": "time 4.0 weeks"}, "Mus musculus [9]": {"tested_on": "Mus musculus", "assay": "Anti-NASH activity in western diet and CCl4-induced nonalcoholic steatohepatitis C57BL/6 mouse assessed as downregulation of TNFalpha expression level at 20 mg/kg, po administered for 12 weeks starting from week 8 and change in dose for every 5 days by ELISA", "assay_type": "functional, organism-based", "conditions": "time 4.0 weeks"}, "Mus musculus [10]": {"tested_on": "Mus musculus", "assay": "Anti-NASH activity in western diet and CCl4-induced nonalcoholic steatohepatitis C57BL/6 mouse assessed as downregulation of F4/80 expression level at 20 mg/kg, po administered for 12 weeks starting from week 8 and change in dose for every 5 days", "assay_type": "functional, organism-based", "conditions": "time 4.0 weeks"}, "[11]": {"molecular_target": "T3, Bile acid receptor (Mus musculus) (UniProt Q60641)", "T3 sequence (whole entry)": "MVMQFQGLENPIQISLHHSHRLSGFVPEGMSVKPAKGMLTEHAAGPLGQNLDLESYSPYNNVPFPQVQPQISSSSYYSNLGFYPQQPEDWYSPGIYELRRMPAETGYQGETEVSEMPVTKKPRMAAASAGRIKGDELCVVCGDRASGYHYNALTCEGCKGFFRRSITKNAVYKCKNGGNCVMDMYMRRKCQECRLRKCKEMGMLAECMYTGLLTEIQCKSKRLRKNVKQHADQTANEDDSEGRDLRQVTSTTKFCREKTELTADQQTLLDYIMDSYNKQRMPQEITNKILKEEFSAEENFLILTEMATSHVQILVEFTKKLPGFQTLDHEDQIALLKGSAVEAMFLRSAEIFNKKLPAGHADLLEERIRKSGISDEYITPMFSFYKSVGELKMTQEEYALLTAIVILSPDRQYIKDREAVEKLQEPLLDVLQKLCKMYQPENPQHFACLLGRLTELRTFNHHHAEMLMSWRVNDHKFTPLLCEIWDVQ", "assay": "In vivo activation of FXR pathway in western diet and CCl4-induced nonalcoholic steatohepatitis C57BL/6 mouse model assessed as upregulation of FGF15 gene expression in ileum at 20 mg/kg, po administered for 12 weeks starting from week 8 and change in dose for every 5 days by RT-PCR analysis", "assay_type": "functional, organism-based", "conditions": "time 4.0 weeks"}, "[12]": {"assay": "Subacute toxicity in ICR mouse assessed as animal death at 500 mg/kg/day, po administered for 14 days", "assay_type": "organism-based", "conditions": "in vivo, 336 h, time 14 day"}, "[13]": {"assay": "Subacute toxicity in ICR mouse assessed as changes in serum BUN level at 500 mg/kg/day, po administered for 14 days", "assay_type": "organism-based", "conditions": "in vivo, 336 h, time 14 day"}, "[14]": {"assay": "Subacute toxicity in ICR mouse assessed as changes in serum UA level at 500 mg/kg/day, po administered for 14 days", "assay_type": "organism-based", "conditions": "in vivo, 336 h, time 14 day"}},
  "note": "Calls of active or inactive are those of the source. The rule behind the calls is not given here.",
  "data": [
    {"smiles": "O=C(O)C1(c2cccc(-c3ccc(OCc4c(-c5c(Cl)cccc5Cl)noc4C4CC4)cc3)c2)CC1", "values": [
      {"measurement": "EC50", "setting": "Bile acid receptor", "value": 0.491, "unit": "µM"},
      {"measurement": "remaining at 1 h", "setting": "[1]", "value": 64.3, "unit": "%"},
      {"measurement": "EC50", "setting": "[2]", "value": "> 10", "unit": "µM"},
      {"measurement": "EC50", "setting": "Estrogen receptor", "value": "> 10", "unit": "µM"},
      {"measurement": "EC50", "setting": "Estrogen receptor beta", "value": "> 10", "unit": "µM"},
      {"measurement": "EC50", "setting": "Androgen receptor", "value": "> 10", "unit": "µM"},
      {"measurement": "concentration at 120 h", "setting": "[3]", "value": 29, "unit": "ng/mL"},
      {"measurement": "concentration at 120 h", "setting": "[4]", "value": 37.2, "unit": "ng/g"},
      {"measurement": "Kp at 120 h", "setting": "[5]", "value": 104},
      {"measurement": "Activity", "setting": "Mus musculus [6]", "value": "Active"},
      {"measurement": "Activity", "setting": "Mus musculus [7]", "value": "Active"},
      {"measurement": "Activity", "setting": "Mus musculus [8]", "value": "Active"},
      {"measurement": "Activity", "setting": "Mus musculus [9]", "value": "Active"},
      {"measurement": "Activity", "setting": "Mus musculus [10]", "value": "Active"},
      {"measurement": "Activity", "setting": "[11]", "value": "Active"},
      {"measurement": "Activity", "setting": "[12]", "value": "Non-Toxic"},
      {"measurement": "Activity", "setting": "[13]", "value": "Non-Toxic"},
      {"measurement": "Activity", "setting": "[14]", "value": "Non-Toxic"}
    ]}
  ]
}
